In experiment [1] the target is T1, SpyGapN (Streptococcus pyogenes, UniProt Q99Z67).
T1 sequence (Q99Z67 1-475): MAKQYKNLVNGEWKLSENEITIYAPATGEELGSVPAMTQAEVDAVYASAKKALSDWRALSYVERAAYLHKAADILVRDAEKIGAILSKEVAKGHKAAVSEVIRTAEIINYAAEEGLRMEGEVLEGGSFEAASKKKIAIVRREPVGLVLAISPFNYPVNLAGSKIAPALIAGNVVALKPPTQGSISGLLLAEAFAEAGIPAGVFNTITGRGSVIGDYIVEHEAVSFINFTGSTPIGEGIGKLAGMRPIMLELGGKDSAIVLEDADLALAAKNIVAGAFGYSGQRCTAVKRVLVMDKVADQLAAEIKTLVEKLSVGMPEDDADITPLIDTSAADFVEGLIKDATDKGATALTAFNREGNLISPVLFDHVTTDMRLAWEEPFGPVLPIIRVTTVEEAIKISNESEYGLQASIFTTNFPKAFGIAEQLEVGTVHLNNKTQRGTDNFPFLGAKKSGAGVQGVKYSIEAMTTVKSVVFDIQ
The experiment in a line: NADPH formation at […] nm. The following applies: for inhibition at 40000 µM: read-out: % inhibition at 40 mM. The format is biochemical.

Experiment [2] has as its target T2, SpyGapDH (Streptococcus pyogenes, UniProt P0C0G7).
T2 sequence (P0C0G7 2-336): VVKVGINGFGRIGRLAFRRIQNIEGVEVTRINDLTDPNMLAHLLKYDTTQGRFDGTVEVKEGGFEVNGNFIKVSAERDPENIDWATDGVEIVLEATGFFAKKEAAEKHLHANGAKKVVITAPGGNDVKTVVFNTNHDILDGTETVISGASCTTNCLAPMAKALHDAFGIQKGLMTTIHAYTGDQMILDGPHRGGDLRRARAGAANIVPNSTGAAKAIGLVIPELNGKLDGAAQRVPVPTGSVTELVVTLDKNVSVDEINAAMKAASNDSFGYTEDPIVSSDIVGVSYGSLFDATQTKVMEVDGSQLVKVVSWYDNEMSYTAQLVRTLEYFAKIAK
The experiment in a line: NADH formation at […] nm. The format is biochemical. Conditions: 10 mM NAD+, 10 mM phosphate, 200 mM Tricine pH 8.5.

5 compounds from PMC12758328 (Virulence, 2025) can be followed below.

In general, inhibition refers to the share of the control response that was lost under treatment. Turning to `Oc1ccnnc1` [R76, 4-Hydroxypyridazine], the inhibition at 40000 µM in experiment [1] is ~16%.

Turning to `O=CC(O)COP(=O)(O)O` (racemic) [DL-glyceraldehyde 3-phosphate], the “NADH formation at 340 nm” value in experiment [2] is on record as “To measure the GapDH activity, the assay mixture contained”.

Turning to “(ethoxyoxydophosphanyl)formate [compound 32]”, the “% inhibition at 8 mM” value in experiment [1] (2 mM DL-G3P, 10 mM NADP+, 200 mM Tricine pH 8.5) is ~ 25%.

On to `Nc1cncnc1` [R65, Pyrimidine-5-amine], for which the inhibition at 40000 µM in experiment [1] is ~42%.

On to `O=S(=O)(O)C(O)C(O)S(=O)(=O)O` (centres unmarked) [compound 26, 1,2-dihydroxyethane-1,2-disulfonate], for which, in experiment [1] (read-out: % inhibition at 8 mM), the inhibition at 8000 µM was ~50%.
